According to patent US12599672B2, “KRAS proteolysis targeting chimeras” (PAQ Therapeutics Inc., priority 2023, dated 2026):

Columns and labels:
Assay type in all cases: cell-based
KRAS G12D = target: T1, KRAS G12D (Homo sapiens, UniProt P01116, G12D); test: KRAS G12D HiBit assay; conditions: AsPc-1-KRAS (G12D)-HiBit-KI cell, compound treatment for 24 hours, absolute DC50
T1 construct: AsPc-1-KRAS (G12D)-HiBit-KI cell (Pharmaron); host or cells: AsPc-1-KRAS (G12D)-HiBit-KI cells (HiBiT knock-in at the endogenous KRAS locus)
T1 sequence (P01116 1-188 isoform P01116-2 G12D): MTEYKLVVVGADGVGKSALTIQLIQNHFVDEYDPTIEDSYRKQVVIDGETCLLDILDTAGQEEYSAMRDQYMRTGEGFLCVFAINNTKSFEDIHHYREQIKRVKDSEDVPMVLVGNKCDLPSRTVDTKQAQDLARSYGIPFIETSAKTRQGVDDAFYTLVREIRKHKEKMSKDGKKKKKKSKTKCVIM
Procedure, shortened: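 HiBiT luminescence, detected by adding lytic buffer, substrate and LgBiT protein, served as the KRAS G12D read-out. Compounds, serially diluted 3-fold over 10 points from 0.3 mM DMSO stock, were on cells for 24 h; percent inhibition normalized to cells given 0.1% DMSO only.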

KRAS G12V = target: T2, KRAS G12V (Homo sapiens, UniProt P01116, G12V); test: KRAS G12V HiBit assay; conditions: SW620-KRAS (G12V)-HiBit-KI cells, compound treatment for 24 hours
T2 construct: SW620-KRAS (G12V)-HiBit-KI cell (Pharmaron); host or cells: SW620-KRAS (G12V)-HiBit-KI cells (HiBiT knock-in at the endogenous KRAS locus)
T2 sequence (P01116 1-188 isoform P01116-2 G12V): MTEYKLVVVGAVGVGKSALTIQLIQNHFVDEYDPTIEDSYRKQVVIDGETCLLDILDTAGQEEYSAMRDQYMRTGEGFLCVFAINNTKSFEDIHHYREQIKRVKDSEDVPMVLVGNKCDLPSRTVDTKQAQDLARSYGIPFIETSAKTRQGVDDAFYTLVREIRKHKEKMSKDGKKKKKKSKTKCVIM
Procedure, shortened: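 Luminescence from lytic Nano-Glo HiBiT detection with LgBiT read KRAS G12V levels after 24 h compound exposure. Dilutions were 10-point, 3-fold, from a 0.3 mM DMSO stock. Degradation activity was normalised to cells given 0.1% DMSO alone.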

KRAS = target: T3, KRAS (Homo sapiens, UniProt P01116); test: KRASamp MSD assay; conditions: KE39 (KRAS amplified) cells, treated with test compounds for 24 hr, MSD readout of KRAS degradation
T3 construct: endogenous in cells; host or cells: KE39 (KRAS amplified) cells
T3 sequence (P01116 1-188 isoform P01116-2): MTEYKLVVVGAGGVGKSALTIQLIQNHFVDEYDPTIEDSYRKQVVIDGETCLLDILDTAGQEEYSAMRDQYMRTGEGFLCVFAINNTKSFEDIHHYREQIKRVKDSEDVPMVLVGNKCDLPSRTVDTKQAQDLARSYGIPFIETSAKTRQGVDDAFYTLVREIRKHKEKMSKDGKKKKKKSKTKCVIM
Description: KE39 (KRAS amplified) cells were cultured in RPMI 1640 medium (Gibco, 11875093), seeded into 96 well plate and treated with test compounds for 24 hr. The cells were washed with PBS and lysed in plate for 1 hr at 4° C. with agitation in RIPA buffer (Cat No. BP-115D) supplemented with protease and phosphatase inhibitor cocktail. The lysates were loaded into MSD plate coated with KRAS capture antibody (LSBio, C175665, 1:1000) for 1 h at RT with agitation. The plate was then washed three times with TBST and incubated with KRAS detection antibody (Abcam, Ab275876. 1:2000) for 1 h at RT. After washing three times with TBST, the plate was incubated with secondary detection antibody GAR (1:500) for 1 hr at RT followed with 3×TBST washing. 2×MSD reading buffer was added into individual wells and the plate was finally read by MSD reader (MSD, SQ 120 MM). The recombinant WT KRAS protein was used for standard curve generation and protein quantification. The degradation activity was calculated using the following formula: […]
DC50 was calculated by fitting the curve using GraphPad Prism v8.0.2 (analysis 263): […]

[1] = numeric bounds given in place of class symbols

DC50 (KRAS G12D; class symbols) [nM] | DC50 (KRAS G12V; class symbols) [nM] | DC50 (KRAS) [nM] | DC50 (KRAS G12D; [1]) [nM] | DC50 (KRAS G12V; numeric bounds) [nM] | SMILES
< 100 | < 10 | 1 to 10 |  |  | CCc1c(F)ccc2cc(O)cc(-c3ncc4c(N5CCC[C@@H](N)C5)nc(OC[C@@]56CCCN5[C@H](COC(=O)N5CCC7(CC5)CC(N5CCC(c8ccc9c(c8)n(C)c(=O)n9C8CCC(=O)NC8=O)CC5)C7)CC6)nc4c3F)c12 (stereo partly drawn) [Compound 476, ((3S,7aS)-7a-(((4-((R)-3-aminopiperidin-1-yl)-7-(8-ethyl-7-fluoro-3-hydroxynaphthalen-1-yl)-8-fluoropyrido[4,3-d]pyrimidin-2-yl)oxy)methyl)hexahydro-1H-pyrrolizin-3-yl)methyl 2-(4-(1-(2,6-dioxopiperidin-3-yl)-3-methyl-2-oxo-2,3-dihydro-1H-benzo[d]imidazol-5-yl)piperidin-1-yl)-7-azaspiro[3.5]nonane-7-carboxylate]
< 100 | < 10 | < 1 |  |  | CCc1c(F)ccc2cc(O)cc(-c3ncc4c(N5CCC[C@@](C)(O)C5)nc(OC[C@@]56CCCN5[C@H](COC(=O)N5CCC7(CC5)CC(CN5CCC(c8ccc9c(c8)n(C)c(=O)n9C8CCC(=O)NC8=O)CC5)C7)CC6)nc4c3F)c12 (stereo partly drawn) [Compound 417, ((3S,7aS)-7a-(((7-(8-ethyl-7-fluoro-3-hydroxynaphthalen-1-yl)-8-fluoro-4-((R)-3-hydroxy-3-methylpiperidin-1-yl)pyrido[4,3-d]pyrimidin-2-yl)oxy)methyl)hexahydro-1H-pyrrolizin-3-yl)methyl 2-((4-(1-(2,6-dioxopiperidin-3-yl)-3-methyl-2-oxo-2,3-dihydro-1H-benzo[d]imidazol-5-yl)piperidin-1-yl)methyl)-7-azaspiro[3.5]nonane-7-carboxylate]
< 100 | < 10 | < 1 |  |  | Cn1c(=O)n(C2CCC(=O)NC2=O)c2ccc(C3CCN(CC4CCN(C(=O)OC[C@@H]5CC[C@]6(COc7nc(N8CCC[C@@](C)(O)C8)c8cnc(-c9cc(O)cc%10ccc(F)c(F)c9%10)c(F)c8n7)CCCN56)CC4)CC3)cc21 (stereo partly drawn) [Compound 410, ((3S,7aS)-7a-(((7-(7,8-difluoro-3-hydroxynaphthalen-1-yl)-8-fluoro-4-((R)-3-hydroxy-3-methylpiperidin-1-yl)pyrido[4,3-d]pyrimidin-2-yl)oxy)methyl)hexahydro-1H-pyrrolizin-3-yl)methyl 4-((4-(1-(2,6-dioxopiperidin-3-yl)-3-methyl-2-oxo-2,3-dihydro-1H-benzo[d]imidazol-5-yl)piperidin-1-yl)methyl)piperidine-1-carboxylate]
 | 10 to 100 | 1 to 10 | > 100 |  | CCc1c(F)ccc2cc(O)cc(-c3ncc4c(N5CC[C@H](O)C5)nc(OC[C@@]56CCCN5[C@H](COC(=O)N5CCC7(CC5)CC(N5CCC(c8ccc9c(c8)n(C)c(=O)n9C8CCC(=O)NC8=O)CC5)C7)CC6)nc4c3F)c12 (stereo partly drawn) [Compound 349, ((3S,7aS)-7a-(((7-(8-ethyl-7-fluoro-3-hydroxynaphthalen-1-yl)-8-fluoro-4-((S)-3-hydroxypyrrolidin-1-yl)pyrido[4,3-d]pyrimidin-2-yl)oxy)methyl)hexahydro-1H-pyrrolizin-3-yl)methyl 2-(4-(1-(2,6-dioxopiperidin-3-yl)-3-methyl-2-oxo-2,3-dihydro-1H-benzo[d]imidazol-5-yl)piperidin-1-yl)-7-azaspiro[3.5]nonane-7-carboxylate]
< 100 |  | < 1 |  | > 38.9 | C#Cc1c(F)ccc2cc(O)cc(-c3ncc4c(N5CCC[C@@](C)(O)C5)nc(OC[C@@]56CCCN5[C@@H](COC(=O)N5CCC(CN7CCC(c8ccc9c(c8)n(C)c(=O)n9C8CCC(=O)NC8=O)CC7)CC5)CC6)nc4c3F)c12 (stereo partly drawn) [Compound 140]
< 100 | < 10 | < 1 |  |  | CCc1c(F)ccc2cc(O)cc(-c3ncc4c(N5CCC[C@@](C)(O)C5)nc(OC[C@@]56CCCN5[C@H](COC(=O)N5CC7(CCC(N8CCC(c9ccc%10c(c9)n(C)c(=O)n%10C9CCC(=O)NC9=O)CC8)CC7)C5)CC6)nc4c3F)c12 (stereo partly drawn) [Compound 467, ((3S,7aS)-7a-(((7-(8-ethyl-7-fluoro-3-hydroxynaphthalen-1-yl)-8-fluoro-4-((R)-3-hydroxy-3-methylpiperidin-1-yl)pyrido[4,3-d]pyrimidin-2-yl)oxy)methyl)hexahydro-1H-pyrrolizin-3-yl)methyl 7-(4-(1-(2,6-dioxopiperidin-3-yl)-3-methyl-2-oxo-2,3-dihydro-1H-benzo[d]imidazol-5-yl)piperidin-1-yl)-2-azaspiro[3.5]nonane-2-carboxylate]

Second part, the compound before the results:

SMILES | DC50 (KRAS G12D; class symbols) [nM] | DC50 (KRAS G12V; class symbols) [nM] | DC50 (KRAS) [nM] | DC50 (KRAS G12D; [1]) [nM] | DC50 (KRAS G12V; numeric bounds) [nM]
CCc1c(F)ccc2cc(O)cc(-c3ncc4c(N5CCC[C@@](C)(O)C5)nc(OC[C@@]56CCCN5[C@H](COC(=O)N5CCC(OCCC#Cc7ccc8c(c7)n(C)c(=O)n8C7CCC(=O)NC7=O)CC5)CC6)nc4c3F)c12 (stereo partly drawn) [Compound 371, ((3S,7aS)-7a-(((7-(8-ethyl-7-fluoro-3-hydroxynaphthalen-1-yl)-8-fluoro-4-((R)-3-hydroxy-3-methylpiperidin-1-yl)pyrido[4,3-d]pyrimidin-2-yl)oxy)methyl)hexahydro-1H-pyrrolizin-3-yl)methyl 4-((4-(1-(2,6-dioxopiperidin-3-yl)-3-methyl-2-oxo-2,3-dihydro-1H-benzo[d]imidazol-5-yl)but-3-yn-1-yl)oxy)piperidine-1-carboxylate] | < 100 | < 10 | 1 to 10 |  | 
CCc1c(F)ccc2cc(O)cc(-c3ncc4c(N5CCC[C@@](C)(O)C5)nc(OC[C@]56CCCN5[C@H](COC(=O)N5CCC(COc7ccc8c(c7)n(C)c(=O)n8C7CCC(=O)NC7=O)CC5)CC6)nc4c3F)c12 (stereo partly drawn) [Compound 301, ((3S,7aR)-7a-(((7-(8-ethyl-7-fluoro-3-hydroxynaphthalen-1-yl)-8-fluoro-4-((R)-3-hydroxy-3-methylpiperidin-1-yl)pyrido[4,3-d]pyrimidin-2-yl)oxy)methyl)hexahydro-1H-pyrrolizin-3-yl)methyl 4-(((1-(2,6-dioxopiperidin-3-yl)-3-methyl-2-oxo-2,3-dihydro-1H-benzo[d]imidazol-5-yl)oxy)methyl)piperidine-1-carboxylate] | < 100 | < 10 | < 1 |  | 
C#Cc1c(F)ccc2cc(O)cc(-c3ncc4c(N5CCC[C@@](C)(O)C5)nc(OCC5(CN6CCC7(CC6)CCN(c6cccc8c6n(C)c(=O)n8C6CCC(=O)NC6=O)CC7)CC5)nc4c3F)c12 (stereo partly drawn) [Compound 67] | < 100 | < 10 | 1 to 10 |  | 
C#Cc1c(F)ccc2cc(O)cc(-c3ncc4c(N5CCC[C@@](C)(O)C5)nc(OC[C@@]56CCCN5[C@H](COC(=O)N5CCC7(CC5)CCN7C5CCN(c7ccc8c(c7)n(C)c(=O)n8C7CCC(=O)NC7=O)CC5)CC6)nc4c3F)c12 (stereo partly drawn) [Compound 320, ((3S,7aS)-7a-(((7-(8-ethynyl-7-fluoro-3-hydroxynaphthalen-1-yl)-8-fluoro-4-((R)-3-hydroxy-3-methylpiperidin-1-yl)pyrido[4,3-d]pyrimidin-2-yl)oxy)methyl)hexahydro-1H-pyrrolizin-3-yl)methyl 1-(1-(1-(2,6-dioxopiperidin-3-yl)-3-methyl-2-oxo-2,3-dihydro-1H-benzo[d]imidazol-5-yl)piperidin-4-yl)-1,7-diazaspiro[3.5]nonane-7-carboxylate] |  | > 100 | ≥ 10 | > 100 | 
